# According to patent EP4725957A1, “GROUP OF CYCLIC ALKALINE LIPOPEPTIDE COMPOUNDS, AND PREPARATION METHOD THEREFOR AND USE THEREOF” (Institute of Medicinal Biotechnology, Chinese Academy of …, priority 2023, dated 2024):
# Bridge positions count the residues as written; N and C are the ends. Square brackets hold non-standard residues; d marks the D form. Peptide text beside a SMILES is read from it. * marks the point of attachment. Heptanoyl(6-Me) = CC(C)CCCCC(=O)*; Nonanoyl = CCCCCCCCC(=O)*; X1 = CC[C@H](C)CCCCC(=O)*; dDab = NCC[C@@H](N)C(=O)O; Heptanoyl = CCCCCCC(=O)*; Orn = NCCC[C@H](N)C(=O)O; dDap = NC[C@@H](N)C(=O)O; Dab = NCC[C@H](N)C(=O)O; Dap = NC[C@H](N)C(=O)O
# Key:
# Format in all cases: cell-based
# [1] = Nephrotoxicity assay: in vitro cytotoxicity of HK-2 cells by CCK-8 assay; conditions: human, HK-2 cells (human renal), 72 h incubation with drug-containing medium
# In short: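 Compounds in sterile water, diluted to final 500, 250, 200, 100, 50, 25 and 12.5 µg/mL, were applied for 72 h to human HK-2 kidney cells. Absorbance at 450 nm after 3 h CCK-8 gave viability against untreated wells, and IC50 came from logarithmic regression; three replicates.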
# [2] = tested on: Escherichia coli ATCC BAA-2340 (KPC); conditions: ATCC BAA-2340
# In short: (§1)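 The MIC value comes from CLSI broth microdilution after 16-20 h at 35-37°C. Cyclic lipopeptides in Mueller-Hinton broth spanned 64 to 0.03 mg/L final, with each well carrying (2-4) × 10^5 CFU/mL.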
# [3] = tested on: Klebsiella pneumoniae ATCC BAA-1705 (KPC); conditions: ATCC BAA-1705
# In short: as §1
# [4] = tested on: Acinetobacter baumannii NCTC 13304 (OXA-27); conditions: NCTC 13304
# In short: as §1
# [5] = tested on: Klebsiella pneumoniae KPN+19-15; conditions: KPN+19-15
# In short: as §1
# [6] = tested on: Pseudomonas aeruginosa PAE19-3; conditions: PAE19-3
# In short: as §1
# [7] = tested on: Acinetobacter baumannii ABA19-1; conditions: ABA19-1
# In short: as §1
# [8] = tested on: Pseudomonas aeruginosa ATCC 27853; conditions: ATCC 27853
# In short: as §1
# [9] = tested on: Escherichia coli ATCC BAA-2523; conditions: ATCC BAA-2523
# In short: as §1
SMILES,IC50 at 72 h [1],MIC [2],MIC [3],MIC [4],MIC [5],MIC [6],MIC [7],MIC [8],MIC [9]
"CCCCCCC(=O)N[C@@H](CCN)C(=O)N[C@H](C(=O)N[C@H](CO)C(=O)N[C@H]1CCNC(=O)[C@H]([C@@H](C)O)NC(=O)[C@H](CN)NC(=O)[C@H](CCN)NC(=O)[C@H]([C@@H](C)O)NC(=O)[C@@H](Cc2ccccc2)NC(=O)[C@H](CCN)NC1=O)[C@@H](C)O [Compound 84, Heptanoyl-Dab-Thr-D-Ser-ring(4-10)[Dab-Dab-D-Phe-Thr-Dab-Dap-Thr]] (Heptanoyl-[Dab]T[dS][Dab][Dab][dF]T[Dab][Dap]T; lactam 4-C)",> 500 µg/mL,0.25 µg/mL,0.25 µg/mL,0.03 µg/mL,0.5 µg/mL,64 µg/mL,0.06 µg/mL,>64 µg/mL,0.25 µg/mL
"CCCCCCC(=O)N[C@@H](CCN)C(=O)N[C@H](C(=O)N[C@H](CO)C(=O)N[C@H]1CCNC(=O)[C@H]([C@@H](C)O)NC(=O)[C@H](CCN)NC(=O)[C@H](CCN)NC(=O)[C@H]([C@@H](C)O)NC(=O)[C@@H](Cc2ccccc2)NC(=O)[C@H](CCCN)NC1=O)[C@@H](C)O [Compound 69, Heptanoyl-Dab-Thr-D-Ser-ring(4-10)[Dab-Orn-D-Phe-Thr-Dab-Dab-Thr]] (Heptanoyl-[Dab]T[dS][Dab][Orn][dF]T[Dab][Dab]T; lactam 4-C)",> 500 µg/mL,0.5 µg/mL,0.25 µg/mL,0.25 µg/mL,0.5 µg/mL,8 µg/mL,0.25 µg/mL,64 µg/mL,0.5 µg/mL
"CCCCCCCCC(=O)N[C@@H](CN)C(=O)N[C@H](C(=O)N[C@H](CCN)C(=O)N[C@H]1CCNC(=O)[C@H]([C@@H](C)O)NC(=O)[C@H](CCN)NC(=O)[C@H](CCN)NC(=O)[C@H](CC(C)C)NC(=O)[C@@H](CC(C)C)NC(=O)[C@H](CCN)NC1=O)[C@@H](C)O [Compound 100, Nonanoyl-Dap-Thr-D-Dab-ring(4-10)[Dab-Dab-D-Leu-Leu-Dab-Dab-Thr]] (Nonanoyl-[Dap]T[dDab][Dab][Dab][dL]L[Dab][Dab]T; lactam 4-C)",117 ± 15.6 µg/mL,0.125 µg/mL,0.06 µg/mL,0.06 µg/mL,0.06 µg/mL,1 µg/mL,0.06 µg/mL,1 µg/mL,0.125 µg/mL
"CC[C@H](C)CCCCC(=O)N[C@@H](CCN)C(=O)N[C@H](C(=O)N[C@H](CO)C(=O)N[C@H]1CCNC(=O)[C@H]([C@@H](C)O)NC(=O)[C@H](CCN)NC(=O)[C@H](CCCN)NC(=O)[C@H]([C@@H](C)O)NC(=O)[C@@H](Cc2ccccc2)NC(=O)[C@H](CCN)NC1=O)[C@@H](C)O [Compound 76, (S)-6-methyloctanoyl-Dab-Thr-D-Ser-ring(4-10)[Dab-Dab-D-Phe-Thr-Orn-Dab-Thr]] (X1-[Dab]T[dS][Dab][Dab][dF]T[Orn][Dab]T; lactam 4-C)",> 500 µg/mL,≤0.03 µg/mL,0.25 µg/mL,≤0.03 µg/mL,0.5 µg/mL,64 µg/mL,0.06 µg/mL,>64 µg/mL,≤0.03 µg/mL
"CC(C)CCCCC(=O)N[C@@H](CCN)C(=O)N[C@H](C(=O)N[C@H](CO)C(=O)N[C@H]1CCNC(=O)[C@H]([C@@H](C)O)NC(=O)[C@H](CN)NC(=O)[C@H](CCN)NC(=O)[C@H]([C@@H](C)O)NC(=O)[C@@H](Cc2ccccc2)NC(=O)[C@H](CCN)NC1=O)[C@@H](C)O [Compound 82, 6-methylheptanoyl-Dab-Thr-D-Ser-ring(4-10)[Dab-Dab-D-Phe-Thr-Dab-Dap-Thr]] ({Heptanoyl(6-Me)}-[Dab]T[dS][Dab][Dab][dF]T[Dab][Dap]T; lactam 4-C)",> 500 µg/mL,0.03 µg/mL,0.25 µg/mL,≤0.03 µg/mL,0.5 µg/mL,64 µg/mL,0.06 µg/mL,>64 µg/mL,0.03 µg/mL
"CCCCCCC(=O)N[C@@H](CCN)C(=O)N[C@H](C(=O)N[C@H](CN)C(=O)N[C@H]1CCNC(=O)[C@H]([C@@H](C)O)NC(=O)[C@H](CCN)NC(=O)[C@H](CCN)NC(=O)[C@H](CC(C)C)NC(=O)[C@@H](Cc2ccccc2)NC(=O)[C@H](CCN)NC1=O)[C@@H](C)O [Compound 34, Heptanoyl-Dab-Thr-D-Dap-ring(4-10)[Dab-Dab-D-Phe-Leu-Dab-Dab-Thr]] (Heptanoyl-[Dab]T[dDap][Dab][Dab][dF]L[Dab][Dab]T; lactam 4-C)",298 ± 3.7 µg/mL,0.06 µg/mL,0.06 µg/mL,0.06 µg/mL,0.06 µg/mL,0.5 µg/mL,0.06 µg/mL,0.06 µg/mL,0.06 µg/mL
